Test results as given in the kinase profiling compilation of Christmann-Franck et al. (2016).

Key:
Test in all cases: KINOMEscan competition binding
Conditions in all cases: compound 10.0 µM
MARK4 (human) = MARK4 (human) (UniProt Q96L34)
DCLK3 (human) = DCLK3 (human) (UniProt Q9C098)
PRKCH (human) = PRKCH (human) (UniProt P24723)
AXL (human) = AXL (human) (UniProt P30530)
PLK4 (human) = PLK4 (human) (UniProt O00444)
CAMK2D (human) = CAMK2D (human) (UniProt Q13557)
CHEK1 (human) = CHEK1 (human) (UniProt O14757)
SLK (human) = SLK (human) (UniProt Q9H2G2)
RPS6KA6 KD1 (human) = RPS6KA6 KD1 (human) (UniProt Q9UK32)
MAPKAPK2 (human) = MAPKAPK2 (human) (UniProt P49137)
MAP2K2 (human) = MAP2K2 (human) (UniProt P36507)
EPHA1 (human) = EPHA1 (human) (UniProt P21709)
PKN1 (human) = PKN1 (human) (UniProt Q16512)
ULK3 (human) = ULK3 (human) (UniProt Q6PHR2)
MAP3K12 (human) = MAP3K12 (human) (UniProt Q12852)
ROCK2 (human) = ROCK2 (human) (UniProt O75116)
INSRR (human) = INSRR (human) (UniProt P14616)
GSK3B (human) = GSK3B (human) (UniProt P49841)
TTK (human) = TTK (human) (UniProt P33981)
DMPK (human) = DMPK (human) (UniProt Q09013)
CSNK2A1 (human) = CSNK2A1 (human) (UniProt P68400)
CHUK (human) = CHUK (human) (UniProt O15111)
SRPK3 (human) = SRPK3 (human) (UniProt Q9UPE1)
FLT1 (human) = FLT1 (human) (UniProt P17948)
FGFR1 (human) = FGFR1 (human) (UniProt P11362)
RIPK1 (human) = RIPK1 (human) (UniProt Q13546)
NTRK2 (human) = NTRK2 (human) (UniProt Q16620)
ITK (human) = ITK (human) (UniProt Q08881)
CDK5 (human) = CDK5 (human) (UniProt Q00535)
MAPK12 (human) = MAPK12 (human) (UniProt P53778)
CAMK1G (human) = CAMK1G (human) (UniProt Q96NX5)
TSSK1B (human) = TSSK1B (human) (UniProt Q9BXA7)
NEK5 (human) = NEK5 (human) (UniProt Q6P3R8)
LYN (human) = LYN (human) (UniProt P07948)
SRMS (human) = SRMS (human) (UniProt Q9H3Y6)
MAP2K1 (human) = MAP2K1 (human) (UniProt Q02750)
RPS6KA4 KD2 (human) = RPS6KA4 KD2 (human) (UniProt O75676)
CSF1R (human) = CSF1R (human) (UniProt P07333)
SYK (human) = SYK (human) (UniProt P43405)
PKN2 (human) = PKN2 (human) (UniProt Q16513)

Sequence of MAP2K1 (human) (Q02750 whole entry, looked up): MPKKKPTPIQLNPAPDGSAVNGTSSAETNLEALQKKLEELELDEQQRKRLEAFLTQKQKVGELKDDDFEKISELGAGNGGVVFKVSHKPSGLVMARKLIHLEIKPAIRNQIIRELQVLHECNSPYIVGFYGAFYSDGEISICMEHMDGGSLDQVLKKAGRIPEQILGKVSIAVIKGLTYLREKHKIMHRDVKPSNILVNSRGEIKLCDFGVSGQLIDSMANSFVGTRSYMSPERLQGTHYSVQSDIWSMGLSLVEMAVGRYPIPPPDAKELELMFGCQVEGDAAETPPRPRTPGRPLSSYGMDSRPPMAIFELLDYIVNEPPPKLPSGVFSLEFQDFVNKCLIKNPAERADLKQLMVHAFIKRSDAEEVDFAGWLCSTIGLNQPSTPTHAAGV
Sequence of AXL (human) (P30530 whole entry, looked up): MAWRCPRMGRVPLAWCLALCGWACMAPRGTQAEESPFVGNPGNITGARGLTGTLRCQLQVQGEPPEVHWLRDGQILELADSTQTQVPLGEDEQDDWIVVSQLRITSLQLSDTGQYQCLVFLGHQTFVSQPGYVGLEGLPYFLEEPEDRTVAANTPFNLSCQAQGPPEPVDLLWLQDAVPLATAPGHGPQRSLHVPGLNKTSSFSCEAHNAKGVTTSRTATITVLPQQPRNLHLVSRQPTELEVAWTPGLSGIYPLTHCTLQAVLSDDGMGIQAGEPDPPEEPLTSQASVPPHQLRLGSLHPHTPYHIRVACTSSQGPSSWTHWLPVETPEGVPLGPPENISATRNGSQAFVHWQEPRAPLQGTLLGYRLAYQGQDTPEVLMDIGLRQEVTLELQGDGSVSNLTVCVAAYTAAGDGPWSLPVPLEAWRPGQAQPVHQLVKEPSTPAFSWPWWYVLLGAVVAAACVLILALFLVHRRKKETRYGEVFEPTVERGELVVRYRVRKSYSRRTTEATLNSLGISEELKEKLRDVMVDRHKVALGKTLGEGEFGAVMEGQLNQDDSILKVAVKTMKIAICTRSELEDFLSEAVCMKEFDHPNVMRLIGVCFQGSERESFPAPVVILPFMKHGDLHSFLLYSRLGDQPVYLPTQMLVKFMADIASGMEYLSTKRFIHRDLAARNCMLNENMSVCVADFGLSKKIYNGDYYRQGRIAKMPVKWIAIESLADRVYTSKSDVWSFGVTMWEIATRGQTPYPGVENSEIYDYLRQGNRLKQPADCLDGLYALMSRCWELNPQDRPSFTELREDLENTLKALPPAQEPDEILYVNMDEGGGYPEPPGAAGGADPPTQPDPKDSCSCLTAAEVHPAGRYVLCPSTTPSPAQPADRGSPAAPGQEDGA
Sequence of NEK5 (human) (Q6P3R8 whole entry, looked up): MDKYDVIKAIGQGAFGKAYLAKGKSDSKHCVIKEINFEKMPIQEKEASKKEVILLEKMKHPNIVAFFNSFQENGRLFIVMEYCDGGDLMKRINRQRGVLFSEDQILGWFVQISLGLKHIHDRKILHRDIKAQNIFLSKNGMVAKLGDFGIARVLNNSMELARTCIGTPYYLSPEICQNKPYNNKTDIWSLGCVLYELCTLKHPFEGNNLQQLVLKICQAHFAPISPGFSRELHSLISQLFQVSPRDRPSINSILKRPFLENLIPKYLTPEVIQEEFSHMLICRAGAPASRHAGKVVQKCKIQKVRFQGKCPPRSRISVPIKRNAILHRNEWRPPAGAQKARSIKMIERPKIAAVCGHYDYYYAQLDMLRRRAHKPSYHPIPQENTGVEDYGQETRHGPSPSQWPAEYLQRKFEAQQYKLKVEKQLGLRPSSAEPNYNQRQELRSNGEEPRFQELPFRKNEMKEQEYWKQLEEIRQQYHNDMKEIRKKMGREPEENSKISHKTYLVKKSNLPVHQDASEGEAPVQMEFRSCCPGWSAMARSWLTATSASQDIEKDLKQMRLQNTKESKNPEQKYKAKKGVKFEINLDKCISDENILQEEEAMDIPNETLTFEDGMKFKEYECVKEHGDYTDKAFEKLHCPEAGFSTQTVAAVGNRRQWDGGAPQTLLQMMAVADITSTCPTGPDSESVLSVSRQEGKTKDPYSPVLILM
Sequence of MAPK12 (human) (P53778 whole entry, looked up): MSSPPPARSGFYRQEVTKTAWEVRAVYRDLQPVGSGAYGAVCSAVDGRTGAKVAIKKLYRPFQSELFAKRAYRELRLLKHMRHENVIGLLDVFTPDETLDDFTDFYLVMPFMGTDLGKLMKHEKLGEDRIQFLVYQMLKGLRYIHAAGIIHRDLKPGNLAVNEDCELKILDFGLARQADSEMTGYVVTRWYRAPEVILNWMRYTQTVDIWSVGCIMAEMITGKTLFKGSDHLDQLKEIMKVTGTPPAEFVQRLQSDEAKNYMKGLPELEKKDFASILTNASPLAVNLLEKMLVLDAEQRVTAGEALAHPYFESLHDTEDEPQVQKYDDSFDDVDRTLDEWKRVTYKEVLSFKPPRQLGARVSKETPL
Sequence of MAPKAPK2 (human) (P49137 whole entry, looked up): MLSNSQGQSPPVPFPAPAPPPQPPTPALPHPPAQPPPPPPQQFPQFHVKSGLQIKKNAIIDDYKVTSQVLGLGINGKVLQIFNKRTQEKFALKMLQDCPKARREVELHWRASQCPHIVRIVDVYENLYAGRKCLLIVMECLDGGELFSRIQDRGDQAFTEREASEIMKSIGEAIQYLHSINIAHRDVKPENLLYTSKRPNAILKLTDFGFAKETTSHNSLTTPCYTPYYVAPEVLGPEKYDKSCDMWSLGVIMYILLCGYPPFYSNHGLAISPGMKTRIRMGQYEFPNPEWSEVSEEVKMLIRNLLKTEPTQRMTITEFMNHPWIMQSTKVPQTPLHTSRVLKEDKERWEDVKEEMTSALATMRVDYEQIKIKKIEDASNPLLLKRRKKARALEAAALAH
Sequence of RPS6KA4 KD2 (human) (O75676 whole entry, looked up): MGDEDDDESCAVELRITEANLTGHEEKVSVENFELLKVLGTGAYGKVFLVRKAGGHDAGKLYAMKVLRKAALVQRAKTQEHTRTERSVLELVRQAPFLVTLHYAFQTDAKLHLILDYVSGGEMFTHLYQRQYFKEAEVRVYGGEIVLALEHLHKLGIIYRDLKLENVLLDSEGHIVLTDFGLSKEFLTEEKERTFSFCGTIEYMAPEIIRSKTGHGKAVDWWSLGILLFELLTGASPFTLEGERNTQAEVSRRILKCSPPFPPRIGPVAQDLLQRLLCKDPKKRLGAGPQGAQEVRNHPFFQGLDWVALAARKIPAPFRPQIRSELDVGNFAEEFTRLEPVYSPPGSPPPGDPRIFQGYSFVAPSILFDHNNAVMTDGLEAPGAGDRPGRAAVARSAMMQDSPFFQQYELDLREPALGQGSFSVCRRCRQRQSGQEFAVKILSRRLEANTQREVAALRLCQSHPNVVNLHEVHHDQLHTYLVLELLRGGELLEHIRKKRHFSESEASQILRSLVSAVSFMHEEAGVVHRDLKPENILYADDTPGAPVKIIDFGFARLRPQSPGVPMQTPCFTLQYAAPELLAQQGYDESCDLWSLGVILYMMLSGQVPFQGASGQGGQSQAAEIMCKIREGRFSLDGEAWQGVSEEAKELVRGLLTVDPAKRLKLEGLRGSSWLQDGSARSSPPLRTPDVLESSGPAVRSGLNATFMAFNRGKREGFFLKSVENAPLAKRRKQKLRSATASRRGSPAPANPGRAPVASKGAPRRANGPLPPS
Sequence of GSK3B (human) (P49841 whole entry, looked up): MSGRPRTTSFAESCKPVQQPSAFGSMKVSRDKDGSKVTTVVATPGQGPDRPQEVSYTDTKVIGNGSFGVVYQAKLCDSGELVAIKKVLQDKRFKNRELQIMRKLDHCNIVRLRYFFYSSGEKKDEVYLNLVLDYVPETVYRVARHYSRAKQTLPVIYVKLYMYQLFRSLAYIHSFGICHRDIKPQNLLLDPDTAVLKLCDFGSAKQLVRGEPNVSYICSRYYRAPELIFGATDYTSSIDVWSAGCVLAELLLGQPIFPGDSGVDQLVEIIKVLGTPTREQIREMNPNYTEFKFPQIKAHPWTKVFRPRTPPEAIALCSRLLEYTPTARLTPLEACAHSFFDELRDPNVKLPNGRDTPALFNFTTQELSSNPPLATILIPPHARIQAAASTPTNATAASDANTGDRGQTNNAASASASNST
Sequence of ITK (human) (Q08881 whole entry, looked up): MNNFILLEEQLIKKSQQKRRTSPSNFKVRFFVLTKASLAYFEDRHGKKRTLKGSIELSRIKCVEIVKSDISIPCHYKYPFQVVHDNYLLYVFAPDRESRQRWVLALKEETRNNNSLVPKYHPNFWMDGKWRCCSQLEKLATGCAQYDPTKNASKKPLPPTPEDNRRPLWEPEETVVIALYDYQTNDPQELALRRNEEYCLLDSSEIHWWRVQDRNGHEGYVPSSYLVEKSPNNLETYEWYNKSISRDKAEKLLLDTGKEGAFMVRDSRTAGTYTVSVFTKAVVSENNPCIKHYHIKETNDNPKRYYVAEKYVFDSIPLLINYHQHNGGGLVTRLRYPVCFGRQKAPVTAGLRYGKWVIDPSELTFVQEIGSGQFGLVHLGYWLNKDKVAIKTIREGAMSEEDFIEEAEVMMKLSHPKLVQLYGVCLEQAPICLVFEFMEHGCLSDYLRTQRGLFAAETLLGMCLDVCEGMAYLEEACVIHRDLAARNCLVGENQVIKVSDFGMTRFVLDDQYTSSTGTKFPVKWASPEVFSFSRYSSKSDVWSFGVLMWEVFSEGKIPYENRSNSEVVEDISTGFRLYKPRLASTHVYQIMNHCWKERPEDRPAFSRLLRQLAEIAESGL
Sequence of CSNK2A1 (human) (P68400 whole entry, looked up): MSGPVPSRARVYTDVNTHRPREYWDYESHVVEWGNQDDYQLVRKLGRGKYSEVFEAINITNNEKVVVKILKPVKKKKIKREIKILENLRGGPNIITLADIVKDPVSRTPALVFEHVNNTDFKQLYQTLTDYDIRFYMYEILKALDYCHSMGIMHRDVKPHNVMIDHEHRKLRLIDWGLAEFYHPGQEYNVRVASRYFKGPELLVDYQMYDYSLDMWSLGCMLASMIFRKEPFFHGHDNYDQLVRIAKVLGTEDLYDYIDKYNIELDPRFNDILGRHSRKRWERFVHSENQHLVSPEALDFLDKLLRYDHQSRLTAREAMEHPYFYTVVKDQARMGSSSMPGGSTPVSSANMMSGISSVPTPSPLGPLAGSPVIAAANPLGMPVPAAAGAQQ

| Compound | kinase still bound, per cent of control (MARK4 (human)) | kinase still bound, per cent of control (DCLK3 (human)) | kinase still bound, per cent of control (PRKCH (human)) | kinase still bound, per cent of control (AXL (human)) | kinase still bound, per cent of control (PLK4 (human)) | kinase still bound, per cent of control (CAMK2D (human)) | kinase still bound, per cent of control (SLK (human)) | kinase still bound, per cent of control (RPS6KA6 KD1 (human)) | kinase still bound, per cent of control (MAPKAPK2 (human)) | kinase still bound, per cent of control (MAP2K2 (human)) | kinase still bound, per cent of control (EPHA1 (human)) | kinase still bound, per cent of control (PKN1 (human)) | kinase still bound, per cent of control (ULK3 (human)) | kinase still bound, per cent of control (MAP3K12 (human)) | kinase still bound, per cent of control (ROCK2 (human)) | kinase still bound, per cent of control (INSRR (human)) | kinase still bound, per cent of control (GSK3B (human)) | kinase still bound, per cent of control (TTK (human)) | kinase still bound, per cent of control (DMPK (human)) | kinase still bound, per cent of control (CSNK2A1 (human)) | further results |
| --- | --- | --- | --- | --- | --- | --- | --- | --- | --- | --- | --- | --- | --- | --- | --- | --- | --- | --- | --- | --- | --- |
| CC[C@@H]1C(=O)N(C)c2cnc(Nc3ccc(C(=O)NC4CCN(C)CC4)cc3OC)nc2N1C1CCCC1 | 100% | 100% | 100% | 100% | 100% | 100% | 3% | 100% | 100% | 100% | 100% | 100% | 100% | 100% | 100% | 100% | 100% | 6.3% | 100% | 100% | kinase still bound, per cent of control (CHEK1 (human)): 100%; kinase still bound, per cent of control (CHUK (human)): 100%; kinase still bound, per cent of control (SRPK3 (human)): 100%; kinase still bound, per cent of control (FLT1 (human)): 100%; kinase still bound, per cent of control (FGFR1 (human)): 100%; kinase still bound, per cent of control (RIPK1 (human)): 100%; kinase still bound, per cent of control (NTRK2 (human)): 100%; kinase still bound, per cent of control (ITK (human)): 100%; kinase still bound, per cent of control (CDK5 (human)): 100%; kinase still bound, per cent of control (MAPK12 (human)): 100%; kinase still bound, per cent of control (CAMK1G (human)): 100%; kinase still bound, per cent of control (TSSK1B (human)): 100%; kinase still bound, per cent of control (NEK5 (human)): 100%; kinase still bound, per cent of control (LYN (human)): 100%; kinase still bound, per cent of control (SRMS (human)): 100%; kinase still bound, per cent of control (MAP2K1 (human)): 100%; kinase still bound, per cent of control (RPS6KA4 KD2 (human)): 0%; kinase still bound, per cent of control (CSF1R (human)): 100% |
| CCCS(=O)(=O)Nc1ccc(F)c(C(=O)c2c[nH]c3ncc(-c4ccc(Cl)cc4)cc23)c1F | 100% | 47% | 100% | 8.4% | 48% | 100% | 1.4% | 82% | 100% | 5.4% | 82% | 78% | 46% | 62% | 77% | 73% | 100% | 57% | 67% | 100% | kinase still bound, per cent of control (SYK (human)): 66%; kinase still bound, per cent of control (PKN2 (human)): 92%; kinase still bound, per cent of control (CHUK (human)): 87%; kinase still bound, per cent of control (SRPK3 (human)): 100%; kinase still bound, per cent of control (FLT1 (human)): 43%; kinase still bound, per cent of control (FGFR1 (human)): 49%; kinase still bound, per cent of control (RIPK1 (human)): 63%; kinase still bound, per cent of control (NTRK2 (human)): 78%; kinase still bound, per cent of control (ITK (human)): 100%; kinase still bound, per cent of control (CDK5 (human)): 96%; kinase still bound, per cent of control (MAPK12 (human)): 93%; kinase still bound, per cent of control (CAMK1G (human)): 92%; kinase still bound, per cent of control (TSSK1B (human)): 99%; kinase still bound, per cent of control (NEK5 (human)): 100%; kinase still bound, per cent of control (LYN (human)): 16%; kinase still bound, per cent of control (SRMS (human)): 0.05%; kinase still bound, per cent of control (MAP2K1 (human)): 10%; kinase still bound, per cent of control (RPS6KA4 KD2 (human)): 96%; kinase still bound, per cent of control (CSF1R (human)): 8% |
| Cc1cc([C@@H](C)Nc2ccccc2C(=O)O)c2nc(N3CCOCC3)cc(=O)n2c1 | 100% | 85% | 82% | 86% | 100% | 95% | 100% | 71% | 66% | 100% | 100% | 100% | 98% | 85% | 91% | 100% | 100% | 100% | 100% | 100% | kinase still bound, per cent of control (CHEK1 (human)): 100%; kinase still bound, per cent of control (SYK (human)): 100%; kinase still bound, per cent of control (PKN2 (human)): 98%; kinase still bound, per cent of control (CHUK (human)): 100%; kinase still bound, per cent of control (SRPK3 (human)): 100%; kinase still bound, per cent of control (FLT1 (human)): 83%; kinase still bound, per cent of control (FGFR1 (human)): 89%; kinase still bound, per cent of control (RIPK1 (human)): 100%; kinase still bound, per cent of control (ITK (human)): 98%; kinase still bound, per cent of control (CDK5 (human)): 100%; kinase still bound, per cent of control (MAPK12 (human)): 94%; kinase still bound, per cent of control (CAMK1G (human)): 91%; kinase still bound, per cent of control (TSSK1B (human)): 100%; kinase still bound, per cent of control (NEK5 (human)): 100%; kinase still bound, per cent of control (LYN (human)): 99%; kinase still bound, per cent of control (SRMS (human)): 63%; kinase still bound, per cent of control (MAP2K1 (human)): 89%; kinase still bound, per cent of control (RPS6KA4 KD2 (human)): 100%; kinase still bound, per cent of control (CSF1R (human)): 94% |
